Entries after “also recorded” stand apart in the source; their conditions may differ.
What was measured:
Type in all cases: cell-based, rat
[1] = system: LII stellate cells in MEA; assay: Spontaneous postsynaptic currents (sEPSCs, sIPSCs) in LII stellate cells of MEA after focal application of compounds to PrS via CESOP, voltage-clamp in acute brain slices; conditions: for percentage reduction in sIPSC frequency following application of the drug: NBQX 10 μM focally to PrS; for average sIPSC frequency / average sEPSC amplitude / average sEPSC frequency: glutamate 100 μM then NBQX 10 μM focally to PrS, mean ±SEM; for average sIPSC frequency: holding 0 mV; for average sEPSC amplitude / average sEPSC frequency: holding -70 mV
Experimental: (§1) Sprague-Dawley rats (male; n=11 epileptic, n=15 controls) from postnatal (P) days 40 to 88 were used in this study. All experiments were carried out in accordance with the National Institute of Health Guide for the Care and Use of Laboratory Animals and were approved by the Florida State University Institutional Animal Care and Use Committee. Rats were made epileptic according to previously described protocols for bringing up the pilocarpine model of TLE. Briefly, rats were treated with pilocarpine (P41, 141±2 g; 380 mg/kg i.p.) 20 min after atropine methylbromide (5 mg/kg i.p.). Diazepam (10 mg/kg i.p.) was administered 2 h after the onset of status epilepticus and repeated as needed. Following recovery from status epilepticus, rats were video monitored (40 h/wk) for spontaneous seizures. Animals used for electrophysiological experiments were confirmed epileptic, displaying frank spontaneous recurrent seizures scored 3 or greater on the Racine scale (Racine 1972) on two or more observations during the 40 h/wk video monitoring. Recordings from epileptic animals were made on average 39 days (P80) post status epilepticus (range: 25-47 days, P66-P88), with initial seizures observed between 5 and 29 days post status. Control groups consisted of naive rats that were on average P70 (range: P49-P91).
(§2) Rats were deeply anesthetized with urethane (1.5 g/kg ip) before being decapitated. Following decapitation, the brain was quickly removed from the skull before being placed in a chilled (4° C.) low-Ca^2+, low-Na^+“cutting solution” containing (in mM) 230 sucrose, 10 D-glucose, 26 NaHCO3, 2.5 KCl, 1.25 NaH2PO4, 10 MgSO4, and 0.5 CaCl2 equilibrated with a 95%-5% mixture of O2 and CO2. After removing the cerebellum and rostral half of the brain, a 10-15° semi-horizontal cut (in a ventral-caudal to dorsal-rostral plane) was made to the dorsal part of the cortex with respect to the horizontal plane (FIG. 2E). The cut dorsal surface of the brain was adhered to the cutting platform using cyanoacrylate glue. This cutting angle was chosen to increase the likelihood of preserving PrS projections to MEA in acute brain slices, because PrS projections tend to travel to the MEA in a lateroventral orientation. Semi-horizontal slices (400 μm) were prepared using a microslicer (VT1000S, Leica, Germany) in the chilled cutting solution and allowed to equilibrate in oxygenated artificial cerebrospinal fluid (aCSF) containing (in mM) 126 NaCl, 26 NaHCO3, 3 KCl, 1.25 NaH2PO4, 2 MgSO4, 2 CaCl2, 0.25 L-Glutamine, and 10 D-glucose (pH 7.4), first at 32° C. for 1 h and subsequently at room temperature before being transferred to the recording chamber.
(§3) Recordings were obtained at 32±1° C. from neurons in LII and LIII of MEA under Nomarski optics (Zeiss) using a visualized infrared setup (Hamamatsu) that enabled identification of their location within the various lamina. On average, 3.5±0.4 (range: 2-5) and 3.6±0.4 (range: 2-6) cells were recorded per animals in the control and epileptic groups respectively. Patch electrodes were pulled from borosilicate glass (1.5 mm outer diameter, 0.75 mm inner diameter, 3-6 MΩ). The internal solution for voltage-clamp experiments contained (in mM): 120 cesium gluconate, 1 MgCl2, 1 CaCl2, 11 CsCl, 10 HEPES, 2 NaATP, 0.3 NaGTP, 1 QX-314, 11 EGTA, and 20 biocytin (pH 7.3, corrected with Cs-OH; final osmotic concentration, 290 mOsm). The internal solution for current-clamp experiments contained (in mM): 105 potassium gluconate, 30 KCl, 10 HEPES, 10 phosphocreatine, 4 MgATP, 0.3 GTP (pH adjusted to 7.3 with KOH; final osmotic concentration, 300 mOsm).
(§4) Recording conditions were the same for control and epileptic animals. Slices were maintained in oxygenated (95% O2-5% CO2) aCSF, flowing at a rate of 2 ml/min. Drugs were applied focally to superficial PrS via the CESOP technique (FIGS. 4A-4E, described below). […]

[2] = system: LIII pyramidal neurons in MEA; assay: Spontaneous postsynaptic currents (sEPSCs, sIPSCs) in LIII pyramidal neurons of MEA after focal application of compounds to PrS via CESOP, voltage-clamp in acute brain slices
Experimental: as §1, §2, §3, §4

RS cell in LIII of PrS = assay: Action potential firing of PrS neurons on local application via CESOP, current-clamp in acute brain slices; conditions: glutamate 100 μM, 3 min duration
[3] = epileptic rats (pilocarpine model of TLE)
[4] = epileptic conditions, glutamate 100 μM then NBQX 10 μM focally to PrS, holding 0 mV, mean ±SEM

| SMILES | percentage reduction in sIPSC frequency following application of the drug ([1]; control animals) [%] | average sIPSC frequency ([1]; control rats) [Hz] | average sEPSC amplitude ([1]; control rats) [pA] | average sEPSC frequency ([1]; control rats) [Hz] | average sIPSC frequency [1, 3] [Hz] | average sEPSC amplitude [1, 3] [pA] | average sEPSC frequency [1, 3] [Hz] | percentage reduction in sIPSC frequency following application of the drug ([1]; epileptic rats) [%] | sIPSC frequency ([2]; control animals, glutamate 100 μM then NBQX 10 μM focally to PrS, holding 0 mV, mean ±SEM) [Hz] | reduction in sEPSC frequency following application of NBQX ([2]; control conditions, NBQX 10 μM focally to PrS) [%] | average sEPSC frequency ([2]; control rats, glutamate 100 μM then NBQX 10 μM focally to PrS, holding -70 mV, mean ±SEM) [Hz] | average sIPSC amplitude [2, 4] [pA] | average sIPSC frequency [2, 4] [Hz] | sEPSC frequency ([2]; epileptic rats (pilocarpine model of TLE), glutamate 100 μM then NBQX 10 μM focally to PrS, holding -70 mV, mean ±SEM) [Hz] | action potential discharge of PrS neurons in response to local application (RS cell in LIII of PrS) |
| --- | --- | --- | --- | --- | --- | --- | --- | --- | --- | --- | --- | --- | --- | --- | --- |
| NS(=O)(=O)c1cccc2c1c([N+](=O)[O-])cc1[nH]c(=O)c(=O)[nH]c12 [NBQX, 2,3-dioxo-6-nitro-1,2,3,4-tetrahydrobenzo[f]quinoxaline-7-sulfonamide] | 22 | 11.1±1.4 | 18±1 | 5.6±1 | 7.5±1 | 21±2 | 4.9±0.8 | 11 | 4.5±0.3 | 30 | 4.6±0.6 | 30±2 | 6.8±0.9 | 10.5±2 | – |
| N[C@@H](CCC(=O)[O-])C(=O)[O-].[Na+].[Na+] [glutamate, Sodium glutamate] | – | – | – | – | – | – | – | – | – | – | – | – | – | – | sustained action potential discharge; also recorded: reliably evokes action potential firing |

Reference: patent US10273442B1, “Device and method for concomitant ejection and suction of perfusate” (priority 2015, dated 2019)
